Laboratory results from patent publication US20090149332A1, “METHODS FOR DETERMINING THE ACTIVITY OF ADAM-TS PROTEASES USING THIOPEPTOLIDES” (SANOFI-AVENTIS DEUTSCHLAND GMBH, priority 2005, published 2009).
[ ]: non-standard residue; d: D form. The star is where a group is joined. Dnp = O=[N+]([O-])c1ccc(*)c([N+](=O)[O-])c1; Mca = COc1ccc2c(CC(=O)*)cc(=O)oc2c1; Nva = CCC[C@H](N)C(=O)O; Dap = NC[C@H](N)C(=O)O; Mob = COc1ccc(C*)cc1

Experiments:
Type in all cases: biochemical
[1] = system: ADAMTS; assay: Colorimetric thiopeptolide conversion assay (Example 2); conditions: Example 2, ADAMTS-1 and ADAMTS-4 tested
Method: (§1) TNCB Buffer (see Example 1)
(§2) ADAMTS (Invitek Gesellschaft für Biotechnik & Biodesign mbH, Berlin, Germany) 5 μg of ADAMTS-1 were diluted with 2200 μL, and 5 μg of ADAMTS-4 were diluted with 600 μl of TNCB buffer.
(§3) 1) DTNB Solution (5,5′-dithiobis(2-nitrobenzoic Acid):
(§4) A 40 mM stock solution in DMSO was prepared:
(§5) Then 27.5 μL of DTNB stock solution were diluted with 522 μL of water.
(§6) A 100 mM stock solution in DMSO was prepared. For use, 55 μL of thiopeptilide stock solution were diluted with 500 μL of TNCB buffer.
(§7) Immediately before use, 550 μl of DTNB were mixed with 550 μl of thiopeptilide.
(§8) The measurements were carried out in 96-multiwell plates (half area plates, flat bottom, clear, polystyrene, No. 3695) (Corning Costar, Acton, USA).
(§9) 10 μL of enzyme solution and 10 μL of H2O were mixed, and the reaction was started by adding 10 μL of substrate solution.
(§10) Microtiter plate photometer: Molecular Devices Sunnyvale, USA. SpectraMax 190.

[2] = system: ADAMTS-4; assay: Colorimetric thiopeptolide conversion assay, Ellman's reaction with DTNB (Example 2); set-up: key: +: Increase in the optical signal was observed over 5 minutes; conditions: absorption at 415 nm for 5 min
Method: as §1, §2, §3, §4, §5, §6, §7, §8, §9, §10

[3] = system: ADAMTS-1; assay: as above; set-up: key: +: Increase in the optical signal was observed over 5 minutes; conditions: absorption at 415 nm for 5 min
Method: as §1, §2, §3, §4, §5, §6, §7, §8, §9, §10

[4] = target: T1, MMP-8cd (Homo sapiens, UniProt P22894); assay: as above; set-up: key: +: Increase in the optical signal was observed over 5 minutes; conditions: absorption at 415 nm for 5 min
T1 construct: The catalytic domains of the human recombinant MMP-3 and MMP-8 protein, MMP-3cd and MMP-8cd; purchased Biomol International L. P. Pennsylvania, USA SE-255
Method: as §1, §3, §4, §5, §6, §7, §8, §9, §10

[5] = target: T2, MMP-3cd (Homo sapiens, UniProt P08254); assay: as above; set-up: key: +: Increase in the optical signal was observed over 5 minutes; conditions: absorption at 415 nm for 5 min
T2 construct: The catalytic domains of the human recombinant MMP-3 and MMP-8 protein, MMP-3cd and MMP-8cd; purchased Biomol International L. P. Pennsylvania, USA SE-109
Method: as §1, §3, §4, §5, §6, §7, §8, §9, §10

[6] = target: T2, MMP-3cd; assay: Fluorometric substrate conversion assay (Comparative Example 1); set-up: key to Conversion of fluorimetric substrate by MMP-3 cd (increase in the optical signal): +: Increase in the optical signal was observed over 5 minutes; conditions: for Conversion of fluorimetric substrate by MMP-3 cd (increase in the optical signal): fluorescence measured for 5 minutes, λex/λem per substrate
Method: (§11) The catalytic domains of the human recombinant MMP-3 and MMP-8 protein, MMP-3cd and MMP-8cd, can be purchased from, for example, Biomol International L. P. Pennsylvania, USA; catalog number SE-109 and SE-255 respectively. The truncated forms of ADAM-TS1 and ADAM-TS4 protease can likewise be purchased from, for example, Invitek, Gesellschaft für Biotechnik & Biodesign mbH, Berlin, Germany, catalog number 30400402 and 30400102, respectively.
(§12) 100 mM tris(hydroxymethyl)aminomethane, adjusted to pH 7.5 with HCl-100
(§13) 10 mM substrates (see Table) in DMSO, immediately before use, 2 μL of the substrate stock solution were diluted with 130 μL of H2O.
(§14) MMP-3cd (2.3 μg/mL), MMP-8cd (0.6 μg/mL), ADAMTS-1 (2.3 μg/mL) and ADAMTS-4 (3.3 μg/mL) were diluted with TNCB buffer.
(§15) 10 μL of enzyme solution were mixed with 10 μL of H2O, and the reaction was started by adding 10 μL of substrate solution.
(§16) The fluorescence was measured in a TECAN Spectrafluor Plus fluorescence apparatus; Excitation/Emission (see Table). This entailed measuring the fluorescence for 5 minutes on each occasion.

[7] = target: T1, MMP-8cd; assay: as above; set-up: key to Conversion of fluorimetric substrate by MMP-8 cd (increase in the optical signal): +: Increase in the optical signal was observed over 5 minutes; conditions: for Conversion of fluorimetric substrate by MMP-8 cd (increase in the optical signal): fluorescence measured for 5 minutes, λex/λem per substrate
Method: as §11, §12, §13, §14, §15, §16

T1 sequence (P22894 100-262 limits assumed): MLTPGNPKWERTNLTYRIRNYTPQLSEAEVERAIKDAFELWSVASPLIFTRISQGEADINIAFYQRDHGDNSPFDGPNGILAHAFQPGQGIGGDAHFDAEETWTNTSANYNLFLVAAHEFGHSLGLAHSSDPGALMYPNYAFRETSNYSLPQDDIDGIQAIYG
T2 sequence (P08254 100-272 limits assumed): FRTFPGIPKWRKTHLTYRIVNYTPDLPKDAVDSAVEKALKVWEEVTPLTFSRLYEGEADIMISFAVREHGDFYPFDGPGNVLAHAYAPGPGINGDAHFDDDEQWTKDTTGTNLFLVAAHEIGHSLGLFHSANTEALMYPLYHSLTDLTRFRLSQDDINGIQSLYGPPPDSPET

Row | Molecule | Conversion of fluorimetric substrate by MMP-3 cd (increase in the optical signal) [6] | Conversion of fluorimetric substrate by MMP-8 cd (increase in the optical signal) [7] | also measured
1 | CCOC(=O)CNC(=O)[C@H](CC(C)C)NC(=O)C(CC(C)C)SC(=O)CNC(=O)[C@H](CC(C)C)NC(=O)[C@@H]1CCCN1C(C)=O (stereo partly drawn) [Compound 1, Ac—P-L-G-[(S)-2-mercapto-4-methylpentanoyl]-L-G-OEt] |  |  | Conversion by ADAMTS (in words) [1]: converted; Conversion of colorimetric substrate in Ellman's reaction by ADAMTS-4 [2]: +; Conversion of colorimetric substrate in Ellman's reaction by ADAMTS-1 [3]: +; Conversion of colorimetric substrate in Ellman's reaction by MMP-8 cd [4]: +; Conversion of colorimetric substrate in Ellman's reaction by MMP-3 cd [5]: +
2 | CCCC(SC(=O)C(C)NC(=O)[C@H](CC(C)C)NC(=O)[C@@H]1CCCN1C(C)=O)C(=O)N[C@@H](Cc1c[nH]c2ccccc12)C(N)=O (stereo partly drawn) [Compound 2, Ac—P-L-A-[(S)-2-mercaptopentanoyl]-W—NH2] |  |  | Conversion by ADAMTS (in words) [1]: not converted; Conversion of colorimetric substrate in Ellman's reaction by MMP-8 cd [4]: +; Conversion of colorimetric substrate in Ellman's reaction by MMP-3 cd [5]: +
3 | Dnp-P-L-G-L-W-A-R—NH2 (Dnp-PLGLWAR-NH2; SMILES CC(C)C[C@H](NC(=O)CNC(=O)[C@H](CC(C)C)NC(=O)[C@@H]1CCCN1c1ccc([N+](=O)[O-])cc1[N+](=O)[O-])C(=O)N[C@@H](Cc1c[nH]c2ccccc12)C(=O)N[C@@H](C)C(=O)N[C@@H](CCCNC(=N)N)C(N)=O) [fluorimetric MMP substrate, Bachem M-1855] | + |  | 
4 | Mca-P-β-cyclohexyl-A-G-Nva-H-A-Dpa-NH2 | + | + | 
5 | Mca-PLAQAV[Dap](Dnp)RSSSR-NH2 | + |  | 
6 | Mca-PLA[Nva][Dap](Dnp)AR-NH2 | + | + | 
7 | Mca-R—P—K—P—V-E-Nval-W—R—K-(Dnp)-NH2 | + |  | 
8 | Mca-R—P—K—P—Y-A-Nva-Met-K(Dnp)-NH2 | + | + | 

Second part, led by results:

Row | Conversion of fluorimetric substrate by MMP-3 cd (increase in the optical signal) [6] | Conversion of fluorimetric substrate by MMP-8 cd (increase in the optical signal) [7] | Molecule | also measured
9 | + | + | (7-methoxycoumarin-4-yl)acetyl-Pro-Leu-Gly-Leu-3-(2′,4′-dinitro-phenyl)-L-2,3-diaminopropionyl-Ala-Arg-NH2 [Mca-P-L-G-L-Dap(Dnp)-A-R—NH2] | Conversion with the protease MMP-3 (in words) ([6]; see experimental section): possible to convert; Conversion with the protease MMP-8 (in words) ([7]; see experimental section): possible to convert
10 | + | + | Dnp-P-β-cyclohexyl-A-G-C(Me)-H-A-K—(N-Me-Abz)-NH2 | 
11 | + |  | Mca-GKPILFFRLK(Dnp)R-NH2 | 
12 | + | + | Mca-PLAC(Mob)WAR[Dap](Dnp)-NH2 | 
13 | + | + | Mca-RPLALWR[Dap](Dnp)-NH2 | 
14 | + | + | NBD-eAhx-R—P—K—P-L-A-Nva-W—K(DMACA)-NH2 | 
